Experimental data reported in patent publication US4613613A, “γ-butyrolactone derivatives, process for preparing the same and immunomodulating compositions containing the same as active ingredients” (Mitsubishi Yuka Pharmaceutical Co., Ltd., priority 1983, dated 1986).

Columns and labels:
[1] = Acute Toxicity Test (oral, mortality by 3-days observation); details: mouse, in vivo, ddY male mice
Description: Using ddY strain male mice of 7-8 weeks old, each group consisting of 5 mice, a suspension of the present compound in a 1% tragacanth solution was administered orally. Then, mortality was examined by 3-days observation.

adjuvant arthritis = test: Adjuvant Arthritis Inhibiting Activity (paw volume); assay type: in vivo, rat (F-344 strain male rats); details: measured after 24 days, * p < 0.05 (Ttest)
Description: F-344 strain male rats of 9 weeks old (Nippon Charles River), each group consisting of 8-10 rats, were employed for assessment of adjuvant arthritis inhibiting activity of the present compounds Arthritis was induced by subsutaneous injection of 100 μl of a 6% paraffin oil suspension of Mycobacterium butyricum into hind paw. The test compound was suspended in a 1% tragacanth solution and then administered orally everyday from the day of adjuvant injection up to the 21st day at a volume of 5 ml/kg. After 24 days from the sensitization, paw volume was measured Oral administration of solely a 1% tragacanth solution was applied for control.

living body = details: background, known immunomodulating agents; cited from earlier work
[2] = 30 mg/Kg oral everyday to 21st day, Controls: 3.48 ± 0.11 (No. 23), 3.62 ± 0.06 (No. 40), 3.58 ± 0.20 (No. 83)
[3] = 300 mg/Kg oral everyday to 21st day, Controls: 3.48 ± 0.11 (No. 23), 3.62 ± 0.06 (No. 40)

SMILES	LD50 at 72 h [1] [mg/kg]	Paw volume (adjuvant arthritis; [2]) [mL]	toxicity to a living body (in words) (living body)	also measured
O=C1OCC(c2ccccc2)C1CSCc1ccccc1 (stereo not shown) [Compound 84]	> 4000	–	–	–
COc1ccc(C2COC(=O)C2CSC2CCCCC2)cc1 (stereo not drawn) [Compound 83, α-cyclohexylthiomethyl-β-(p-methoxyphenyl)-γ-butyrolactone]	–	3.00 ± 0.16	–	–
c1ccc([C@H]2CN3CCSC3=N2)cc1 [Levamisole, levamisole, reference compound]	< 1000	–	strong toxicity	–
O=C([O-])c1ccccc1Nc1cc(Cl)ccc1C(=O)[O-].[Na+].[Na+] [N-(2-carboxyphenyl)-4-chloroanthranilic acid disodium salt]	–	–	strong toxicity	–
Cc1ccc(C(=O)SCC2C(=O)OCC2c2ccc(Cl)cc2)cc1 (stereo not drawn) [Compound 1, β-(p-chlorophenyl)-α-(p-methylbenzoylthiomethyl)-γ-butyrolactone]	> 4000	–	–	–
Cc1ccc(C(=O)SCC2C(=O)OCC2c2ccccc2)cc1 (stereo not shown) [Compound 7]	> 4000	–	–	–
CC(C)(S)[C@@H](N)C(=O)O [D-penicillamine]	–	–	strong toxicity	–
CC(=O)SCC1C(=O)OCC1c1ccccc1 (stereo not drawn) [Compound 40, α-acetylthiomethyl-β-phenyl-γ-butyrolactone]	> 2000	3.18 ± 0.17	–	Paw volume (adjuvant arthritis; [3]): 3.18 ± 0.18 mL
O=C(SC[C@@H]1C(=O)OC[C@H]1c1ccc(Cl)cc1)c1ccc(F)cc1 (relative stereo) [Compound 23]	> 4000	2.78 ± 0.23	–	Paw volume (adjuvant arthritis; 3 mg/Kg oral everyday to 21st day, Control 3.48 ± 0.11): 2.84 ± 0.25 mL; Paw volume (adjuvant arthritis; [3]): 3.03 ± 0.25 mL
O=C(SCC1C(=O)OCC1c1ccc(Cl)cc1)c1ccccc1 (stereo not drawn) [Compound 74, α-benzoylthiomethyl-β-(p-chlorophenyl)-γ-butyrolactone]	> 4000	–	–	–
